# Measured values as given in ChEMBL document CHEMBL6153138, “Discovery of Novel Aromatic Urea-Imidazole Salt Derivatives for Cancer Therapy via Targeting ERK1/2” (J Med Chem, 2025).
# Active and inactive are the calls of the source. The rule behind the calls is not given here.
# Columns and labels:
# MCF7 [1] = assay: Upregulation of C-caspase3 protein expression in human MCF-7 cells at 1 uM incubated for 6 hrs in presence of 3-methyladenine by Western blot analysis; assay type: functional, cell-based
# [2] = AUC (0 to t) in Sprague-Dawley rat at 1 mg/kg, iv by LC-MS/MS analysis; assay type: ADME, organism-based; settings: in vivo
# MCF7 [3] = assay: Induction of autophagy in human MCF7 cells assessed as increase in LC3B-II level at 1 uM by Western blot analysis; assay type: functional, cell-based
# A-375 = assay: Antiproliferative activity against human A-375 cells expressing B-Raf V600E mutant; assay type: functional, cell-based
# MCF7 [4] = assay: Downregulation of c-Myc phosphorylation expression in human MCF7 cells at 0.5 to 2 uM measured after 30 mins to 4 hrs by Western blot analysis; assay type: functional, cell-based; settings: dose 0.5-2 µM, time 30-240 min
# MCF7 [5] = assay: Upregulation of ERK1/2 phosphorylation expression in human MCF7 cells at 2 uM measured after 12 to 24 hrs by Western blot analysis; assay type: functional, cell-based; settings: time 12-24 hrs
# MCF7 [6] = assay: Induction of apoptosis in human MCF7 cells assessed as early apoptotic cells at 2 uM incubated for 48 hrs by Annexin V/FITC and PI staining based flow cytometry analysis (reference value: 1.1%); assay type: functional
# 4T1-Luc [7] = assay: Anti-metastatic activity in mouse 4T1-Luc cells assessed as reduction in condensed nuclei at 25 to 50 mg/kg, po measured after 20 days by H and E staining based analysis; assay type: functional, organism-based; settings: dose 25-50 mg/kg, time 20.0 day
# [8] = Clearance in Sprague-Dawley rat at 1 mg/kg, iv by LC-MS/MS analysis; assay type: ADME, organism-based; settings: in vivo
# MCF7 [9] = assay: Induction of autophagic flux in human MCF7 cells assessed as colocalization of LC3B at 1 uM incubated for 48 hrs in presence of chloroquine by immunofluorescence analysis; assay type: functional, cell-based
# MCF7 [10] = assay: Induction of autophagy in human MCF7 cells assessed as increase in LC3B expression at 0.5 to 2 uM by immunofluorescence analysis; assay type: functional, cell-based; settings: dose 0.5-2 µM
# [11] = target: Mitogen-activated protein kinase 3 (Homo sapiens, UniProt P27361); assay: Inhibition of ERK1 (unknown origin) incubated for 60 mins by luminescence based ADP-Glo kinase assay
# Mitogen-activated protein kinase 3, sequence (P27361 whole entry): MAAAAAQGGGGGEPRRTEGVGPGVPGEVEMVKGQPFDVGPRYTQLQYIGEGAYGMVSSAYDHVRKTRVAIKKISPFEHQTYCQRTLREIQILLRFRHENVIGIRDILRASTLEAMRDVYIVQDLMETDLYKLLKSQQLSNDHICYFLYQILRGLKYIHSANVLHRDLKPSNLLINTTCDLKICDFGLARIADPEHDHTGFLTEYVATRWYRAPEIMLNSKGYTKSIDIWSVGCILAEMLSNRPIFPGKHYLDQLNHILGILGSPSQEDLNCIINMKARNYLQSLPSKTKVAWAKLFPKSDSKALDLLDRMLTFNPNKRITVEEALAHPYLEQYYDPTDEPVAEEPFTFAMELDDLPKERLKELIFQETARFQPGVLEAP
# MCF7 [12] = assay: Induction of autophagic flux in human MCF7 cells assessed as increase in LC3B-II expression at 1 uM incubated for 48 hrs in presence of chloroquine by Western blot analysis; assay type: functional, cell-based
# MCF7 [13] = assay: Induction of apoptosis in human MCF7 cells assessed as increase in PARP1 level at 0.5 to 2 uM by Western blot analysis; assay type: functional, cell-based; settings: dose 0.5-2 µM
# [14] = Toxicity in female BALB/c mouse assessed as effect on tumor at 50 mg/kg, po qd measured after 18 days in presence of chloroquine by H and E staining based analysis; assay type: organism-based; settings: in vivo, 432 h, time 18 day
# MCF7 [15] = assay: Induction of autophagy in human MCF7 cells assessed as increase in ATG5 level at 1 uM by Western blot analysis; assay type: functional, cell-based
# MCF7 [16] = assay: Upregulation of ERK1/2 phosphorylation expression in human MCF7 cells at 2 uM measured after 8 hrs by immunofluorescence analysis; assay type: functional, cell-based
# 4T1 [17] = assay: Antitumor activity against mouse 4T1 cells implanted in female BALB/c mouse model assessed as tumor growth inhibition at 50 mg/kg, po qd measured for 18 days relative to control; assay type: functional; settings: 4T1, 432 h, time 18 day, read-out: TGI
# MCF7 [18] = assay: Inhibition of colony formation in human MCF7 cells at 1 uM incubated for 6 hrs in presence of 3-methyladenine by crystal violet staining based analysis; assay type: functional, cell-based
# MCF7 [19] = assay: Induction of autophagy in human MCF7 cells harbouring beclin1 knockout assessed as increase in LC3B expression at 1 uM incubated for 48 hrs by Western blot analysis; assay type: functional, cell-based
# 4T1 [20] = assay: Antitumor activity against mouse 4T1 cells implanted in female BALB/c mouse model assessed as reduction in tumor volume at 50 mg/kg, po qd measured for 18 days in presence of chloroquine; assay type: functional, organism-based; settings: time 18.0 day
# MCF7 [21] = assay: Activation of ERK1/2 pathway in human MCF7 cells assessed as increase in EGF-induced c-Myc phosphorylation at 2 uM incubated for 30 mins by Western blot analysis; assay type: cell-based
# MCF7 [22] = assay: Inhibition of colony formation in human MCF7 cells harbouring ERK1 knockout at 1 uM incubated for 48 hrs by crystal violet staining based microscopic analysis; assay type: functional, cell-based
# MCF7 [23] = assay: Induction of apoptosis in human MCF7 cells assessed as increase in Bax/Bcl-2 ratio at 0.5 to 2 uM by Western blot analysis; assay type: functional, cell-based; settings: dose 0.5-2 µM
# 4T1-Luc [24] = assay: Anti-metastatic activity in mouse 4T1-Luc cells assessed as reduction in disruption of cell structure at 25 to 50 mg/kg, po measured after 20 days by H and E staining based analysis; assay type: functional, organism-based; settings: dose 25-50 mg/kg, time 20.0 day
# [25] = Toxicity in female BALB/c mouse assessed as effect on heart at 50 mg/kg, po qd measured after 18 days in presence of chloroquine by H and E staining based analysis; assay type: organism-based; settings: in vivo, 432 h, time 18 day
# [26] = Toxicity in female BALB/c mouse assessed as effect on kidney at 25 to 50 mg/kg, po qd measured after 18 days by H and E staining based analysis; assay type: organism-based; settings: in vivo, 432 h, dose 25-50 mg/kg, time 18 day
# [27] = target: Ribosomal protein S6 kinase alpha-1 (Homo sapiens, UniProt Q15418); assay: Inhibition of RSK1 (unknown origin) incubated for 60 mins by luminescence based ADP-Glo kinase assay
# Ribosomal protein S6 kinase alpha-1, sequence (Q15418 whole entry): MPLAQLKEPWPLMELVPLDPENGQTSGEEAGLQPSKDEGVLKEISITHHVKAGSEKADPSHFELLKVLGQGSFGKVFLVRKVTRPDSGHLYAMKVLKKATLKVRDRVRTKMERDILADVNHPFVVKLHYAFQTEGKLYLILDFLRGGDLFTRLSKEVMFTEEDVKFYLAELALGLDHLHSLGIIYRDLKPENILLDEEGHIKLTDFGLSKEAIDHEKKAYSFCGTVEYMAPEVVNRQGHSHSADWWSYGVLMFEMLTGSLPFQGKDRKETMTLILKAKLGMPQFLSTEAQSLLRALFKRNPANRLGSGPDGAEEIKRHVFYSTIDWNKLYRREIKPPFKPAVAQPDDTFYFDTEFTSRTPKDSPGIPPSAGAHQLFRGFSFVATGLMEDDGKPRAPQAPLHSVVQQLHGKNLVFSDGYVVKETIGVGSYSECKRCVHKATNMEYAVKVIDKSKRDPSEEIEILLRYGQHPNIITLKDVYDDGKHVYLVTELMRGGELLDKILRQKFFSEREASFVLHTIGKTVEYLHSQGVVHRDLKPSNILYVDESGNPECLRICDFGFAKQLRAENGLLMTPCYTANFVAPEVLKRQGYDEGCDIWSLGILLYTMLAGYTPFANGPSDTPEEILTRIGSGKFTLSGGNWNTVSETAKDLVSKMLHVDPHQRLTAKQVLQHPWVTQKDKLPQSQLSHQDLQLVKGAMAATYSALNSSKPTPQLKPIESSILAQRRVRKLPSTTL
# [28] = Toxicity in female BALB/c mouse assessed as effect ALP level in serum at 25 to 50 mg/kg, po qd measured after 18 days by biochemical analysis; assay type: organism-based; settings: in vivo, 432 h, dose 25-50 mg/kg, time 18 day
# MCF7 [29] = assay: Downregulation of vimentin expression in human MCF7 cells at 0.5 to 2 uM; assay type: functional, cell-based; settings: dose 0.5-2 µM
# [30] = Cmax in Sprague-Dawley rat at 1 mg/kg, iv by LC-MS/MS analysis; assay type: ADME, organism-based; settings: in vivo
# [31] = Toxicity in female BALB/c mouse assessed as effect CHO level in serum at 25 to 50 mg/kg, po qd measured after 18 days by biochemical analysis; assay type: organism-based; settings: in vivo, 432 h, dose 25-50 mg/kg, time 18 day
# 4T1-Luc [32] = assay: Anti-metastatic activity in mouse 4T1-Luc cells assessed as reduction in fluorescence intensity at 25 to 50 mg/kg, po measured after 16 days; assay type: functional, organism-based; settings: dose 25-50 mg/kg, time 16.0 day
# [33] = Toxicity in female BALB/c mouse assessed as effect on kidney at 50 mg/kg, po qd measured after 18 days in presence of chloroquine by H and E staining based analysis; assay type: organism-based; settings: in vivo, 432 h, time 18 day
# [34] = target: Mitogen-activated protein kinase; ERK1/ERK2 (Homo sapiens) (UniProt P27361+P28482); assay: Induction of thermal stabilization of ERK1/2 in human MCF7 cells at 10 uM incubated for 3 hrs at 65 to 75 degree C by […] method; assay type: cell-based
# Mitogen-activated protein kinase; ERK1/ERK2 (Homo sapiens), sequence (P27361 whole entry, looked up): as the sequence (P27361 whole entry) above
# Mitogen-activated protein kinase; ERK1/ERK2 (Homo sapiens), sequence (P28482 whole entry, looked up): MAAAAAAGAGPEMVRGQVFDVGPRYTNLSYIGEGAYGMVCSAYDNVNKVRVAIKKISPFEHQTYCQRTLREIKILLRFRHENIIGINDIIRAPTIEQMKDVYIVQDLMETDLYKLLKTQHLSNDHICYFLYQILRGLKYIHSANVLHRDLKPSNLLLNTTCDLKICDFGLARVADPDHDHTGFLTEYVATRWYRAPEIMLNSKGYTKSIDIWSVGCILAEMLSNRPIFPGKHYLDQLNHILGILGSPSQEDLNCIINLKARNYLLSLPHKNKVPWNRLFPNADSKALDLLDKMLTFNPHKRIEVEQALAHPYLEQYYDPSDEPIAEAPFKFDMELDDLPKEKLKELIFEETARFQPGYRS
# MCF7 [35] = assay: Activation of ERK1/2 pathway in human MCF7 cells assessed as increase in EGF-induced p90RSK phosphorylation at 2 uM incubated for 30 mins by Western blot analysis; assay type: cell-based
# MCF7 [36] = assay: Downregulation of p90RSK phosphorylation expression in human MCF7 cells at 0.5 to 2 uM measured after 30 mins to 4 hrs by Western blot analysis; assay type: functional, cell-based; settings: dose 0.5-2 µM, time 30-240 min
smiles,measurement,setting,value
O=C(Nc1cc(C(F)(F)F)cc(C(F)(F)F)c1)N[C@@H](Cc1ccccc1)Cn1c[n+](Cc2ccc3ccccc3c2)c2ccccc21.[Br-],Activity,MCF7 [1],Active
same,AUC(0-t),[2],1040 ng·h/mL
same,Activity,MCF7 [3],Active
same,IC50,A-375,0.75 µM
same,Activity,MCF7 [4],Active
same,Activity,MCF7 [5],inactive
same,Activity,MCF7 [6],12.9%
same,Activity,4T1-Luc [7],Active
same,clearance,[8],15.2 mL/min/kg
same,Activity,MCF7 [9],Active
same,Activity,MCF7 [10],Dose-dependent-effect
same,IC50,[11],0.0917 µM
same,Activity,MCF7 [12],Active
same,Activity,MCF7 [13],Active
same,Activity,[14],Non-toxic
same,Activity,MCF7 [15],Active
same,Activity,MCF7 [16],Active
same,inhibition in vivo at 50 mg/kg,4T1 [17],54.9%
same,inhibition,MCF7 [18],Active
same,Activity,MCF7 [19],inactive
same,Activity,4T1 [20],Active
same,Activity,MCF7 [21],inactive
same,inhibition,MCF7 [22],inactive
same,Activity,MCF7 [23],Active
same,Activity,4T1-Luc [24],Active
same,Activity,[25],Non-toxic
same,Activity,[26],Non-toxic
same,IC50,[27],0.674 µM
same,Activity,[28],Non-toxic
same,Activity,MCF7 [29],Active
same,Cmax,[30],534 ng/mL
same,Activity,[31],Non-toxic
same,Activity,4T1-Luc [32],Active
same,Activity,[33],Non-toxic
same,Activity,[34],Active
same,Activity,MCF7 [35],inactive
same,Activity,MCF7 [36],Active
